Test system: Bovine chondrocytes
Assay: Viability of isolated chondrocytes suspended 12 hrs at 37° C. in various solutions (membrane integrity dyes)
Type: cell-based
Settings: bupivacaine 1.25 mg/mL [0.125%]
Description: FIG. 7: Bovine chondrocytes suspended for 12 hrs. at 37° C. in various solutions of phosphate buffered saline (PBS), bupivacaine (1.25 mg/mL [0.125%]), arthroguard and saline. In these experiments, 2.5 mg/mL [0.25%] bupivacaine was combined with arthroguard to yield a final concentration of 1.25 mg/mL [0.125%] bupivacaine in arthroguard. for 12 hrs. Cell viability is assessed by membrane integrity dyes.

## CCCCN1CCCCC1C(=O)Nc1c(C)cccc1C (stereo not shown) [bupivicaine, bupivacaine]
  amount of cell death of isolated chondrocytes exposed to bupivicaine: increases the amount of cell death

From patent US9095617B2, “Surgical adjuvant composition and associated methods of use” (Soteria Industries, Inc., priority 2010, dated 2015)
